Counter-ions that a name gives are not always drawn.
How the values were obtained:
Type in all cases: physicochemical
[1] = Kinematic viscosity of surfactant base formulation with added agent (calibrated Cannon viscometers); conditions: for Kinematic viscosity at 40 C., 2% oil: 2% agent in base formulation; for Lowest viscosity achieved: kinematic viscosity at 40° C., lowest over 2%, 4%, 6%, 8% agent in base formulation (24% sodium undecyl sulfate, 6% lauramidopropyl betaine, 1.6% perfume); for Kinematic viscosity at 40 C., 4% oil: 4% agent in base formulation; for Kinematic viscosity at 40 C., 6% oil: 6% agent in base formulation; for Kinematic viscosity at 40 C., 8% oil: 8% agent in base formulation
Excerpt: Referring to Tables 1 and 2, the base formulations were made by mixing 1.6% perfume, 24% sodium undecyl sulfate (CAS#1072-24-8) active, 6% lauramidopropyl betaine (CAS#4292-10-8) active and 60.4% deionized water which leaves 8% unfilled for the addition of a viscosity reducing agent (the balance being filled in by distilled water). For all compositions, the surfactant, water and additives including viscosity reducing agents were expected to be in a single phase.
The agents from Tables 1 and 2 were added to the base formulation at a percentage of 2%, 4%, 6%, and 8% into the above surfactant solution. The subsequent formulations were vortexed and put into oven at 60° C. overnight to form homogeneous solution. The viscosities of the formulations were measured with calibrated viscometers (Size 200/350/450) from Cannon Instrument Company (2139 High Tech Road, State College, Pa., USA, 16803).
After the equilibration, the formulations were drawn to reach the starting mark with a rubber suction bulb and the flow time between the starting mark and end mark was recorded for calculation. Each formulation was measured three times to calculate average and standard deviation. Between samples, viscometer was cleaned with water and acetone to rinse off residual.
Viscosity values were calculated based on the equation:
Viscosity (mm^2/s (cSt))=Time (s)*Constant (mm^2/s^2·(cSt/s))
The time in the above equation is the flow time recorded in the experiment and the constant numbers for each calibrated viscometer were obtained from the manuals.

[2] = NMR self-diffusion coefficients and specific diffusivity ratio; conditions: for Specific diffusivity ratio measured at 4%: diffusion coefficient of the viscosity reducing agent/diffusion coefficient of the surfactant, 4% additive; for Diffusion Coefficient (m^2/s) surfactant at 4% additive: surfactant self-diffusion
Method: Now referring to Table 5, the specified viscosity reducing agents were added to the formula at a level of 4% in absence of other viscosity reducing agents. Diffusion coefficients were determined using a vendor-supplied pulse sequence (“ledbpgq2s”, stimulated echo with bipolar gradients and convection compensation) using a Bruker Avance 700 MHz NMR spectrometer equipped with a Diff-30 high gradient diffusion probe. Gradient pulse durations ranged between 1700-2700 us, with diffusion periods ranging from 50-100 ms. 32 linearly-spaced gradient values were used ranging from 2%-95% of 40 A current, with resulting gradient strengths given by 30 Gauss/cm/A. Data were processed using software written in-house. It is often necessary to fit more than one diffusion coefficient to individual signals. Average diffusion coefficients are reported in these cases. Averages were calculated by averaging the reciprocals of the diffusion coefficients and then taking the reciprocal of that average.
The specific diffusivity ratio is calculated as the ratio of the diffusion coefficient of the viscosity reducing agent/diffusion coefficient of the surfactant.
Two mechanisms of viscosity reduction are hypothesized based on self-diffusion coefficients. This leads to a simple diagnostic measurement to classify perfumes by their mechanism of viscosity reduction. That diagnostic is the ratio of the perfume self-diffusion coefficient to the surfactant self-diffusion coefficient (specific diffusivity ratio). In mechanism 1, the surfactant diffusion coefficient is not reduced, and may be increased, while the perfume diffusion coefficient is faster still. In mechanism 2, the surfactant and perfume diffusion coefficient are reduced to relatively small, nearly equal values. For mechanism 1, the viscosity reducing agent diffuses faster than the surfactant (specific diffusivity ratio>1), whereas for mechanism 2, the viscosity reducing agent diffuses slower than the surfactant (specific diffusivity ratio<1).

[3] = SAXS correlation length of the micelles; conditions: for Change in correlation length compared to control: control 51 A
Excerpt: Now referring to Table 4, SAXS (Small angle x-ray scattering) was used to characterize the structure of the surfactant aggregates. For these set of samples, the broad peak represents the correlation length (CL) of the micelles and was used to differentiate between the different formulations.
SAXS data was collected with a Bruker NanoSTAR (Bruker AXS Inc., Madison, Wis., U.S.A.) using the micro-focus, Cu x-ray tube, operating at 45 kV, 0.650 mA. The sample to detector distance was 112.050 cm and the detector was Vantec2K 2-dimensional area detector. Samples were placed in 2 mm quartz capillaries, sealed with expoxy resin to prevent evaporation. The sealant is permitted to cure for 2 hours at RT (room temperature) prior to loading into the SAXS sample chamber for data acquisition under vacuum with a data collection time of 1200 s. The data acquisition angular range is 0.3° to 3.0° […], to observe the presence and location of any intensity bands in the x-ray scattering pattern.
Each raw 2-D SAXS data is integrated azimuthally and plotted versus the scattering vector (q), which is expressed as a […] in units of angstroms (1/Å). • The values for q are calculated by the SAXS instrument according to the following equation: […]
Where: 2θ is the scattering angle; and λ is the wavelength used. For each formulation analyzed, the location of each intensity peak on the plot of (Intensity) I vs q is identified and recorded.

Row | SMILES | Kinematic viscosity at 40 C., 2% oil [1] | Lowest viscosity achieved [1] | Kinematic viscosity at 40 C., 4% oil [1] | Specific diffusivity ratio measured at 4% [2] | Diffusion Coefficient (m^2/s) surfactant at 4% additive [2] | Correlation length peak [A] ([3]; 2% oil) | Change in correlation length compared to control ([3]; 2% oil) | Correlation length peak [A] ([3]; 4% oil) | Change in correlation length compared to control ([3]; 4% oil) | Kinematic viscosity at 40 C., 6% oil [1] | Kinematic viscosity at 40 C., 8% oil [1]
1 | CC(C)COC(=O)c1ccccc1O [Iso Butyl Salicylate] | 408.7 cSt | 409 cSt | – | – | – | – | – | – | – | – | –
2 | CCCCCCC1C(=O)CCC1C(=O)OC (stereo not shown) [Dihyro Iso Jasmonate] | 334.9 cSt | 119 cSt | 119.1 cSt | – | – | – | – | – | – | – | –
3 | CCCCCCCCCCCCCCCC [Hexadecane] | 21.1 cSt | 18 cSt | 18.1 cSt | 0.9998 | 4.1943E−12 m^2/s | 59 A | 15.7% | 66 A | 29.4% | – | –
4 | CC1=CC=C(C(C)C)CC1 [alpha-Terpinene] | 324.4 cSt | 42 cSt | 96.0 cSt | – | – | – | – | – | – | 41.5 cSt | 46.7 cSt
5 | CC(C)=CCC/C(C)=C/COC(=O)Cc1ccccc1 [Geranyl Phenyl Acetate] | 224.0 cSt | 34 cSt | 76.0 cSt | 0.8119 | 3.6554E−12 m^2/s | 55 A | 7.8% | 60 A | 17.6% | 34.3 cSt | 36.6 cSt
6 | CC(C)CC=C(C=O)C(C)C [2-Isopropyl-5-methyl-2-hexenal] | 332.3 cSt | 332 cSt | – | – | – | – | – | – | – | – | –
7 | OCC(O)CO [Glycerin] | – | – | – | – | – | 51 A | 0.0% | 51 A | 0.0% | – | –
8 | CC(=O)OCCC(C)CCC=C(C)C (stereo not shown) [Citronellyl Acetate] | 362.7 cSt | 363 cSt | – | – | – | – | – | – | – | – | –
9 | CCC(CC(C)CC)=NO (stereo not shown) [5-Methyl-3-Heptanone Oxime] | 246.3 cSt | 246 cSt | – | – | – | – | – | – | – | – | –
10 | COc1ccc(C=O)cc1 [Anisic aldehyde] | – | – | – | 3.3012 | 1.8945E−11 m^2/s | 51 A | 0.0% | 51 A | 0.0% | – | –
11 | CCCCOC(=O)c1ccccc1O [Butyl Salicylate] | 367.9 cSt | 368 cSt | – | – | – | – | – | – | – | – | –
12 | CC(C)CCOC(=O)c1ccccc1O [Isoamyl Salicylate] | 460.3 cSt | 193 cSt | 193.2 cSt | – | – | – | – | – | – | – | –
13 | COC(C)(C)C1CC=C(C)CC1 (stereo not shown) [Orange Flower Ether] | 552.2 cSt | 419 cSt | 418.8 cSt | – | – | – | – | – | – | – | –
14 | CC(=O)OCCC(C)CCCC(C)C (stereo not shown) [3,7-Dimethyloctyl Acetate] | 445.7 cSt | 446 cSt | – | – | – | – | – | – | – | – | –
15 | CCOC(=O)CC(O)(CC(=O)OCC)C(=O)OCC [Triethyl Citrate] | 269.4 cSt | 41 cSt | 136.6 cSt | 3.9850 | 1.0196E−11 m^2/s | 50 A | −2.0% | 49 A | −3.9% | 66.6 cSt | 40.5 cSt
16 | CCCCCCCCCCCCCC(=O)OC(C)C [Iso Propyl Myristate] | 234.2 cSt | 30 cSt | 53.7 cSt | 0.6401 | 2.1874E−12 m^2/s | – | – | – | – | 30.4 cSt | 45.0 cSt
17 | CC1=CCC(C(C)C)=CC1 [gamma-Terpinene] | 238.0 cSt | 32 cSt | 65.0 cSt | – | – | – | – | – | – | 31.7 cSt | –
18 | CCO [Ethanol] | 205.6 cSt | 29 cSt | 111.0 cSt | – | – | 51 A | 0.0% | 49 A | −3.9% | 50.8 cSt | 29.2 cSt
19 | CCC(=O)O[C@@H]1C[C@H]2CC[C@]1(C)C2(C)C (racemic) [Iso Bornyl Propionate] | 463.1 cSt | 463 cSt | – | – | – | – | – | – | – | – | –
20 | CCCCCCCC(OC)OC [1,1-Dimethoxyoctane] | 500.7 cSt | 308 cSt | 308.1 cSt | – | – | – | – | – | – | – | –
21 | CCCCCC(=O)OCC(C)C [Isobutyl Hexanoate] | 390.0 cSt | 109 cSt | 177.9 cSt | – | – | – | – | – | – | 140.9 cSt | 109.4 cSt
22 | CC12CCC(CC1=O)C2(C)C (stereo not shown) [Camphor Gum] | 365.8 cSt | 127 cSt | 127.2 cSt | – | – | – | – | – | – | – | –
23 | CCCCCC1(C)CCC(C)(C)C1=O (stereo not shown) [Veloutone] | 260.2 cSt | 47 cSt | 129.1 cSt | 0.965 | 2.3854E−12 m^2/s | 55 A | 7.8% | 59 A | 15.7% | 56.3 cSt | 47.3 cSt
24 | CCC(=O)OC1CC2CC1C1CC=CC21 (stereo not shown) [Cyclaprop] | 404.2 cSt | 404 cSt | – | – | – | – | – | – | – | – | –
25 | C=C(C)[C@H]1CC=C(C)CC1 [Dipentene] | 307.6 cSt | 35 cSt | 74.5 cSt | – | – | – | – | – | – | 35.1 cSt | 42.6 cSt
